# Experimental data: paper PMC6899670 (The Febs Journal, 2019)
# Where two headings read alike, the source gives them in different places.
# What was measured:
# [1] = molecular target: T1, BpDdl (Burkholderia pseudomallei D-alanine-D-alanine ligase) (Burkholderia pseudomallei, UniProt Q63QJ9); conditions: substrate inhibition at high ATP; 10 mM D-Ala, pH 8, 10 mM MgCl2, 100 mM KCl, 30 °C; enzyme co-purified with AMP
# T1 construct: gene ddl
# [2] = molecular target: T1, BpDdl (Burkholderia pseudomallei D-alanine-D-alanine ligase); experiment: biochemical
# [3] = molecular target: T1, BpDdl (Burkholderia pseudomallei D-alanine-D-alanine ligase); experiment: biochemical; remark: listed apart in the source
# T1 sequence (Q63QJ9 whole entry, looked up): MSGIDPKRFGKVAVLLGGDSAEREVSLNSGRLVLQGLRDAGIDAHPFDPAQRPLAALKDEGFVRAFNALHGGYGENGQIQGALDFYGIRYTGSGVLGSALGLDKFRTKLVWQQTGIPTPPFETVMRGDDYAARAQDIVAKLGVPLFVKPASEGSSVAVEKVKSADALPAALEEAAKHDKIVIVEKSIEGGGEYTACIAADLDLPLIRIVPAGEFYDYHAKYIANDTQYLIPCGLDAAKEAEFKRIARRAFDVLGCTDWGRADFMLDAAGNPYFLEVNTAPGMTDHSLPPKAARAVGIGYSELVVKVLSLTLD
smiles,measurement,setting,value
Nc1ncnc2c1ncn2[C@@H]1O[C@H](COP(=O)(O)OP(=O)(O)OP(=O)(O)O)[C@@H](O)[C@H]1O [ATP],"K i,ATP",[1],3.16 ± 0.59 mM
N[C@@H]1CON=C1O [DCS],Ki,[2],0.1 mM
CC(=O)NCc1ccccc1Cl [compound identified in the fragment screen],Ki,[3],10 mM
